Measured values: EP1801117A1, “Means and methods for regulating amino acid pools and/or transport” (Friesland Brands B.V., priority 2005, dated 2007)

Biological target: L. lactis MG1363 BcaP (CtrA), branched-chain amino acid permease (Lactococcus lactis subsp. cremoris, UniProt A2RHI9)
Assay: Competition experiment: inhibition of L-[14C]isoleucine uptake by unlabeled L-amino acids in whole cells overproducing BcaP
Assay type: cell-based
Details: 10-fold excess of unlabeled L-amino acid; 250 µM unlabeled L-isoleucine (control); lactococcal cells overproducing BcaP; uptake after 1 min at 30°C; means of three measurements
Procedure: Amino acid transport assays. L. lactis MG1363 (pNGbcaP; pNZ9530), L. lactis MG1363 or L. lactis MGbcaP, the latter two harboring plasmids pNG8048 and pNZ9530, were grown at 30°C in 50 ml of ½GM17. At an OD600 of approximately 0.4, 1000^-1 volume of supernatant of the nisin-producing strain L. lactis NZ9700 (Kuipers et al, 1993) was added to the cultures to induce BcaP production. At an OD600 of approximately 1.0, cells were harvested by centrifugation at 6300 g and 4°C. Cell pellets were washed with 25 ml of ice-cold CDM, concentrated to an OD600 of 10.0 in CDM lacking amino acids and stored on ice until use. Cells were energized prior to transport assays by 5 min of incubation at 30°C in the presence of 0.5% glucose. Subsequently, 100 µl of cell suspension were mixed with 100 µL of CDM containing 40 µM of the unlabeled amino acid of interest and a final concentration of 1 µM of the same amino acid in a ^14C- or ^35S-labeled form (Amersham Biosciences). For competition experiments, a 10-fold excess of unlabeled amino acid was added. Mixtures were incubated at 30°C for various time intervals while stirring. The reactions were stopped by the addition of 2 ml of ice-cold 0.1 M LiCl, followed by filtration through 0.45 µm pore-size nitrocellulose filters (Schleicher & Schuell, GmbH, Dassel, Germany). Reaction tubes and filters were washed with another 2 mL of ice-cold 0.1 M LiCl. Subsequently, the filters were transferred to vials containing 2 ml of scintillation fluid (Packard BioScience, Groningen, the Netherlands) and radioactivity was determined using a Packard TriCarb 2000 CA liquid scintillation analyzer (Packard Instruments, Meriden, CT).

Chain of L. lactis MG1363 BcaP (CtrA), branched-chain amino acid permease (A2RHI9 whole entry): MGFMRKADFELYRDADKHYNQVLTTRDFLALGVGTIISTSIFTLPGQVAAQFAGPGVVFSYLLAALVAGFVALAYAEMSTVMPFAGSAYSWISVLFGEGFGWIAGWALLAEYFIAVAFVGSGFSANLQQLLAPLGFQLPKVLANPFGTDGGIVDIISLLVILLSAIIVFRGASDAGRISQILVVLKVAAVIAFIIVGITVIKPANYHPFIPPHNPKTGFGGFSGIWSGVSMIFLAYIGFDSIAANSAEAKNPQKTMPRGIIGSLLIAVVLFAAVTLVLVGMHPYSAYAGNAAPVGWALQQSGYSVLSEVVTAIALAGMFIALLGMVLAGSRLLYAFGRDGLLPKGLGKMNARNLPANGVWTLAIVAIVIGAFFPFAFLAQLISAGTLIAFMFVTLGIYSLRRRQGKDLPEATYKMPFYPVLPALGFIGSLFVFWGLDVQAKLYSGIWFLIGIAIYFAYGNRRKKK

Row | SMILES | inhibition of isoleucine transport by BcaP (reduction of L-[14C]isoleucine uptake)
1 | CC[C@H](C)[C@H](N)C(=O)O [isoleucine] | about 80%
2 | CC(C)C[C@H](N)C(=O)O [leucine] | about 80%
3 | CSCC[C@H](N)C(=O)O [methionine] | 23%
4 | CC(C)[C@H](N)C(=O)O [valine] | 64%
